Data as given in patent publication US20260125382A1, “COMPOUNDS FOR INHIBITING OR DEGRADING CDK2 AND/OR CDK9 AND MEDICINAL USE THEREOF” (KOREA RESEARCH INSTITUTE OF CHEMICAL TECHNOLOGY, priority 2022, published 2026).

Tests used:
CDK2 = molecular target: T1, CDK2 (Homo sapiens, UniProt P24941); assay: CDK protein degradation activity (Western blotting), CDK2; type: cell-based; conditions: MDA-MB-231 cells, 16 hours, Western blot
T1 construct: endogenous in cells; host or cells: MDA-MB-231
Procedure, shortened: (§1)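 Protein levels were read by Western blot densitometry, tubulin serving as loading reference. Beforehand, MDA-MB-231 cells had been exposed for 16 hours to 100 nM, 1 μM or 10 μM compound, DMSO as control.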

CDK9 = molecular target: T2, CDK9 (Homo sapiens, UniProt P50750); assay: CDK protein degradation activity (Western blotting), CDK9; type: cell-based; conditions: MDA-MB-231 cells, 16 hours, Western blot
T2 construct: endogenous in cells; host or cells: MDA-MB-231
Procedure, shortened: as §1

T2 sequence (P50750 whole entry): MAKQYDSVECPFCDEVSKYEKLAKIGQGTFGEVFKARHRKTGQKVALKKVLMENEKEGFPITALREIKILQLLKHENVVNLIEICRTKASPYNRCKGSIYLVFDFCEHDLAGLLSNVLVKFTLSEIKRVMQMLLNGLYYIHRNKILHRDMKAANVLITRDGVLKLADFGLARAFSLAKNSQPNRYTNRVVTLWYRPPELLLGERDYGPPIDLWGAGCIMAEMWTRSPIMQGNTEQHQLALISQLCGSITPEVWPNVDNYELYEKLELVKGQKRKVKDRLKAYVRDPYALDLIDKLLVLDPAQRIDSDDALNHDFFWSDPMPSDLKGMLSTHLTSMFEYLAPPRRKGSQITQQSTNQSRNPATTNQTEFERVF

## O=C1CC[C@H](N2C(=O)c3cc(F)c(N4CCC(CN5CCN(c6ccc(Nc7ncnc8c7ncn8[C@H]7C[C@@H](NC(=O)c8cccc(Cl)n8)C7)cc6)CC5)CC4)cc3C2=O)C(=O)N1 [Compound 416, 6-chloro-N-((1s,3s)-3-(6-((4-(4-((1-(2-(2,6-dioxopiperidin-3-yl)-6-fluoro-1,3-dioxoisoindolin-5-yl)piperidin-4-yl)methyl)piperazin-1-yl)phenyl)amino)-9H-purin-9-yl)cyclobutyl)picolinamide]
CDK2
  Enzyme degradation CDK2 (% remaining) @ 0.1 μM: 20%
  Enzyme degradation CDK2 (% remaining) @ 1 μM: 10%
  Enzyme degradation CDK2 (% remaining) @ 10 μM: 10%
CDK9
  Enzyme degradation CDK9 (% remaining) @ 0.1 μM: 10/10/10%
  Enzyme degradation CDK9 (% remaining) @ 1 μM: 10/10/10%
  Enzyme degradation CDK9 (% remaining) @ 10 μM: 10/10/10%

## Cc1cccc(C(=O)N[C@H]2C[C@@H](n3cnc4c(NC5CCN(CCC6CCN(C(=O)CNc7ccc8c(c7)C(=O)N([C@H]7CCC(=O)NC7=O)C8=O)CC6)CC5)ncnc43)C2)n1 (racemic) [Compound 33, N-((1s,3s)-3-(6-((1-(2-(1-((2-(2,6-dioxopiperidin-3-yl)-1,3-dioxoisoindolin-5-yl)glycyl)piperidin-4-yl)ethyl)piperidin-4-yl)amino)-9H-purin-9-yl)cyclobutyl)-6-methylpicolinamide]
CDK2
  Enzyme degradation CDK2 (% remaining) @ 0.1 μM: 40%
  Enzyme degradation CDK2 (% remaining) @ 1 μM: 30%
  Enzyme degradation CDK2 (% remaining) @ 10 μM: 50%
CDK9
  Enzyme degradation CDK9 (% remaining) @ 0.1 μM: 0/0/0%
  Enzyme degradation CDK9 (% remaining) @ 1 μM: 0/0/0%
  Enzyme degradation CDK9 (% remaining) @ 10 μM: 0/0/0%

## O=C1CC[C@H](N2C(=O)c3cc(F)c(N4CCC(C(=O)N5CCC(CN6CCN(c7ccc(Nc8ncnc9c8ncn9C8CC(NC(=O)Cc9ccccc9)C8)cc7)CC6)CC5)CC4)cc3C2=O)C(=O)N1 (stereo partly drawn) [Compound 456, N-((1s,3s)-3-(6-((4-(4-((1-(1-(2-(2,6-dioxopiperidin-3-yl)-6-fluoro-1,3-dioxoisoindolin-5-yl)piperidin-4-carbonyl)piperidin-4-yl)methyl)piperazin-1-yl)phenyl)amino)-9H-purin-9-yl)cyclobutyl)-2-phenylacetamide]
CDK2
  Enzyme degradation CDK2 (% remaining) @ 0.1 μM: 50%
  Enzyme degradation CDK2 (% remaining) @ 1 μM: 60%
  Enzyme degradation CDK2 (% remaining) @ 10 μM: 70%
CDK9
  Enzyme degradation CDK9 (% remaining) @ 0.1 μM: 0%
  Enzyme degradation CDK9 (% remaining) @ 1 μM: 0%
  Enzyme degradation CDK9 (% remaining) @ 10 μM: 10%

## O=C1CC[C@H](N2C(=O)c3cc(F)c(N4CCC(CN5CCN(c6ccc(Nc7ncnc8c7ncn8C7CC(NC(=O)c8cccc(F)n8)C7)cc6)CC5)CC4)cc3C2=O)C(=O)N1 (stereo partly drawn) [Compound 428, N-((1s,3s)-3-(6-((4-(4-((1-(2-(2,6-dioxopiperidin-3-yl)-6-fluoro-1,3-dioxoisoindolin-5-yl)piperidin-4-yl)methyl)piperazin-1-yl)phenyl)amino)-9H-purin-9-yl)cyclobutyl)-6-fluoropicolinamide]
CDK2
  Enzyme degradation CDK2 (% remaining) @ 0.1 μM: 10/10/10%
  Enzyme degradation CDK2 (% remaining) @ 1 μM: 10/10/10%
  Enzyme degradation CDK2 (% remaining) @ 10 μM: 10/10/10%
CDK9
  Enzyme degradation CDK9 (% remaining) @ 0.1 μM: 0/0/0%
  Enzyme degradation CDK9 (% remaining) @ 1 μM: 0/0/0%
  Enzyme degradation CDK9 (% remaining) @ 10 μM: 0/0/0%

## Cc1cccc(C(=O)NC2CC(n3cnc4c(NCCC5CCN(CC6CCN(C(=O)C7CCN(c8ccc9c(c8)C(=O)N([C@H]8CCC(=O)NC8=O)C9=O)CC7)CC6)CC5)ncnc43)C2)n1 (stereo partly drawn) [Compound 355, N-((1s,3s)-3-(6-((2-(1-((1-(1-(2-(2,6-dioxopiperidin-3-yl)-1,3-dioxoisoindolin-5-yl)piperidin-4-carbonyl)piperidin-4-yl)methyl)piperidin-4-yl)ethyl)amino)-9H-purin-9-yl)cyclobutyl)-6-methylpicolinamide]
CDK2
  Enzyme degradation CDK2 (% remaining) @ 0.1 μM: 70%
  Enzyme degradation CDK2 (% remaining) @ 1 μM: 60%
  Enzyme degradation CDK2 (% remaining) @ 10 μM: 60%
CDK9
  Enzyme degradation CDK9 (% remaining) @ 0.1 μM: 10%
  Enzyme degradation CDK9 (% remaining) @ 1 μM: 0%
  Enzyme degradation CDK9 (% remaining) @ 10 μM: 0%

## Cc1cccc(C(=O)NC2CC(n3cnc4c(NC5CCN(CCOC6CCN(c7cccc8c7C(=O)N([C@H]7CCC(=O)NC7=O)C8=O)CC6)CC5)ncnc43)C2)n1 (stereo partly drawn) [Compound 48, N-((1s,3s)-3-(6-((1-(2-((1-(2-(2,6-dioxopiperidin-3-yl)-1,3-dioxoisoindolin-4-yl)piperidin-4-yl)oxy)ethyl)piperidin-4-yl)amino)-9H-purin-9-yl)cyclobutyl)-6-methylpicolinamide]
CDK2
  Enzyme degradation CDK2 (% remaining) @ 0.1 μM: 100/100/100%
  Enzyme degradation CDK2 (% remaining) @ 1 μM: 100/100/100%
  Enzyme degradation CDK2 (% remaining) @ 10 μM: 100/100/100%
CDK9
  Enzyme degradation CDK9 (% remaining) @ 0.1 μM: 50%
  Enzyme degradation CDK9 (% remaining) @ 1 μM: 20%
  Enzyme degradation CDK9 (% remaining) @ 10 μM: 20%

## O=C1CC[C@H](N2C(=O)c3cc(F)c(N4CCC(CN5CCN(c6ccc(Nc7ncnc8c7ncn8C7CC(NC(=O)c8c(Cl)cccc8Cl)C7)cc6)CC5)CC4)cc3C2=O)C(=O)N1 (stereo partly drawn) [Compound 299, 2,6-dichloro-N-((1s,3s)-3-(6-((4-(4-((1-(2-(2,6-dioxopiperidin-3-yl)-6-fluoro-1,3-dioxoisoindolin-5-yl)piperidin-4-yl)methyl)piperazin-1-yl)phenyl)amino)-9H-purin-9-yl)cyclobutyl)benzamide]
CDK2
  Enzyme degradation CDK2 (% remaining) @ 0.1 μM: 30/30/30%
  Enzyme degradation CDK2 (% remaining) @ 1 μM: 30/30/30%
  Enzyme degradation CDK2 (% remaining) @ 10 μM: 30/30/30%
CDK9
  Enzyme degradation CDK9 (% remaining) @ 0.1 μM: 0/0/0%
  Enzyme degradation CDK9 (% remaining) @ 1 μM: 0/0/0%
  Enzyme degradation CDK9 (% remaining) @ 10 μM: 0/0/0%

## O=C1CC[C@H](N2C(=O)c3ccc(N4CC(C(=O)N5CCC(CN6CCN(c7ccc(Nc8ncnc9c8ncn9[C@H]8C[C@@H](NC(=O)c9c(Cl)cccc9Cl)C8)cc7)CC6)CC5)C4)cc3C2=O)C(=O)N1 [Compound 394, 2,6-dichloro-N-((1s,3s)-3-(6-((4-(4-((1-(1-(2-(2,6-dioxopiperidin-3-yl)-1,3-dioxoisoindolin-5-yl)azetidin-3-carbonyl)piperidin-4-yl)methyl)piperazin-1-yl)phenyl)amino)-9H-purin-9-yl)cyclobutyl)benzamide]
CDK2
  Enzyme degradation CDK2 (% remaining) @ 0.1 μM: 20/20/20%
  Enzyme degradation CDK2 (% remaining) @ 1 μM: 20/20/20%
  Enzyme degradation CDK2 (% remaining) @ 10 μM: 20/20/20%
CDK9
  Enzyme degradation CDK9 (% remaining) @ 0.1 μM: 0/0/0%
  Enzyme degradation CDK9 (% remaining) @ 1 μM: 0/0/0%
  Enzyme degradation CDK9 (% remaining) @ 10 μM: 0/0/0%

## Cc1cccc(C(=O)NC2CC(n3cnc4c(NCCC5CCN(CC6CCN(C(=O)C7CN(c8ccc9c(c8)C(=O)N([C@H]8CCC(=O)NC8=O)C9=O)C7)CC6)CC5)ncnc43)C2)n1 (stereo partly drawn) [Compound 309, N-((1s,3s)-3-(6-((2-(1-((1-(1-(2-(2,6-dioxopiperidin-3-yl)-1,3-dioxoisoindolin-5-yl)azetidin-3-carbonyl)piperidin-4-yl)methyl)piperidin-4-yl)ethyl)amino)-9H-purin-9-yl)cyclobutyl)-6-methylpicolinamide]
CDK2
  Enzyme degradation CDK2 (% remaining) @ 0.1 μM: 90%
  Enzyme degradation CDK2 (% remaining) @ 1 μM: 80%
  Enzyme degradation CDK2 (% remaining) @ 10 μM: 100%
CDK9
  Enzyme degradation CDK9 (% remaining) @ 0.1 μM: 0/0/0%
  Enzyme degradation CDK9 (% remaining) @ 1 μM: 0/0/0%
  Enzyme degradation CDK9 (% remaining) @ 10 μM: 0/0/0%

## O=C1CCC(c2ccc(OCC(=O)N3CCC(CCN4CCN(c5ccc(Nc6ncnc7c6ncn7[C@H]6C[C@@H](NC(=O)c7c(Cl)cccc7Cl)C6)cc5)CC4)CC3)cc2)C(=O)N1 (stereo partly drawn) [Compound 434, 2,6-dichloro-N-((1s,3s)-3-(6-((4-(4-(2-(1-(2-(4-(2,6-dioxopiperidin-3-yl)phenoxy)acetyl)piperidin-4-yl)ethyl)piperazin-1-yl)phenyl)amino)-9H-purin-9-yl)cyclobutyl)benzamide]
CDK2
  Enzyme degradation CDK2 (% remaining) @ 0.1 μM: 50%
  Enzyme degradation CDK2 (% remaining) @ 1 μM: 70%
  Enzyme degradation CDK2 (% remaining) @ 10 μM: 80%
CDK9
  Enzyme degradation CDK9 (% remaining) @ 0.1 μM: 10/10/10%
  Enzyme degradation CDK9 (% remaining) @ 1 μM: 10/10/10%
  Enzyme degradation CDK9 (% remaining) @ 10 μM: 10/10/10%

## O=C1CCC(N2C(=O)c3cc(F)c(N4CCC(CN5CCC(CCNc6ncnc7c6ncn7[C@H]6C[C@@H](NC(=O)Cc7ccccc7)C6)CC5)CC4)cc3C2=O)C(=O)N1 (stereo partly drawn) [Compound 409, N-((1s,3s)-3-(6-((2-(1-((1-(2-(2,6-dioxopiperidin-3-yl)-6-fluoro-1,3-dioxoisoindolin-5-yl)piperidin-4-yl)methyl)piperidin-4-yl)ethyl)amino)-9H-purin-9-yl)cyclobutyl)-2-phenylacetamide]
CDK2
  Enzyme degradation CDK2 (% remaining) @ 0.1 μM: 70%
  Enzyme degradation CDK2 (% remaining) @ 1 μM: 40%
  Enzyme degradation CDK2 (% remaining) @ 10 μM: 40%
CDK9
  Enzyme degradation CDK9 (% remaining) @ 0.1 μM: 70%
  Enzyme degradation CDK9 (% remaining) @ 1 μM: 50%
  Enzyme degradation CDK9 (% remaining) @ 10 μM: 10%

## O=C1CC[C@H](N2C(=O)c3ccc(N4CC(C(=O)N5CCC(N6CCN(c7ccc(Nc8ncnc9c8ncn9[C@H]8C[C@@H](NC(=O)Cc9ccccc9)C8)cc7)CC6)CC5)C4)cc3C2=O)C(=O)N1 [Compound 342, N-((1s,3s)-3-(6-((4-(4-(1-(1-(2-(2,6-dioxopiperidin-3-yl)-1,3-dioxoisoindolin-5-yl)azetidin-3-carbonyl)piperidin-4-yl)piperazin-1-yl)phenyl)amino)-9H-purin-9-yl)cyclobutyl)-2-phenylacetamide]
CDK2
  Enzyme degradation CDK2 (% remaining) @ 0.1 μM: 0/0/0%
  Enzyme degradation CDK2 (% remaining) @ 1 μM: 0/0/0%
  Enzyme degradation CDK2 (% remaining) @ 10 μM: 0/0/0%
CDK9
  Enzyme degradation CDK9 (% remaining) @ 0.1 μM: 0/0/0%
  Enzyme degradation CDK9 (% remaining) @ 1 μM: 0/0/0%
  Enzyme degradation CDK9 (% remaining) @ 10 μM: 0/0/0%
